In ChEMBL document CHEMBL1201862, “PubChem BioAssay data set” (2004):
Active and inactive are the calls of the source. For most assays here, no stated cut-off is given here; in the data, actives have a measured EC50 and inactives only a lower limit.

Experiments:
[1] = target: Mitogen-activated protein kinase 10 (Homo sapiens, UniProt P53779); test: Dose response biochemical screening assay for inhibitors of c-Jun N-Terminal Kinase 3 (JNK3). [Related pubchem assays: 746 ]
Integrin alpha-L = Integrin alpha-L (Mus musculus, UniProt P24063); test: modulators of CD8 T cell-vesicle binding, dose response, powder samples, mouse 2C CD8+ cells (AID 504565); assay type: functional
Chain of Integrin alpha-L (P24063 whole entry): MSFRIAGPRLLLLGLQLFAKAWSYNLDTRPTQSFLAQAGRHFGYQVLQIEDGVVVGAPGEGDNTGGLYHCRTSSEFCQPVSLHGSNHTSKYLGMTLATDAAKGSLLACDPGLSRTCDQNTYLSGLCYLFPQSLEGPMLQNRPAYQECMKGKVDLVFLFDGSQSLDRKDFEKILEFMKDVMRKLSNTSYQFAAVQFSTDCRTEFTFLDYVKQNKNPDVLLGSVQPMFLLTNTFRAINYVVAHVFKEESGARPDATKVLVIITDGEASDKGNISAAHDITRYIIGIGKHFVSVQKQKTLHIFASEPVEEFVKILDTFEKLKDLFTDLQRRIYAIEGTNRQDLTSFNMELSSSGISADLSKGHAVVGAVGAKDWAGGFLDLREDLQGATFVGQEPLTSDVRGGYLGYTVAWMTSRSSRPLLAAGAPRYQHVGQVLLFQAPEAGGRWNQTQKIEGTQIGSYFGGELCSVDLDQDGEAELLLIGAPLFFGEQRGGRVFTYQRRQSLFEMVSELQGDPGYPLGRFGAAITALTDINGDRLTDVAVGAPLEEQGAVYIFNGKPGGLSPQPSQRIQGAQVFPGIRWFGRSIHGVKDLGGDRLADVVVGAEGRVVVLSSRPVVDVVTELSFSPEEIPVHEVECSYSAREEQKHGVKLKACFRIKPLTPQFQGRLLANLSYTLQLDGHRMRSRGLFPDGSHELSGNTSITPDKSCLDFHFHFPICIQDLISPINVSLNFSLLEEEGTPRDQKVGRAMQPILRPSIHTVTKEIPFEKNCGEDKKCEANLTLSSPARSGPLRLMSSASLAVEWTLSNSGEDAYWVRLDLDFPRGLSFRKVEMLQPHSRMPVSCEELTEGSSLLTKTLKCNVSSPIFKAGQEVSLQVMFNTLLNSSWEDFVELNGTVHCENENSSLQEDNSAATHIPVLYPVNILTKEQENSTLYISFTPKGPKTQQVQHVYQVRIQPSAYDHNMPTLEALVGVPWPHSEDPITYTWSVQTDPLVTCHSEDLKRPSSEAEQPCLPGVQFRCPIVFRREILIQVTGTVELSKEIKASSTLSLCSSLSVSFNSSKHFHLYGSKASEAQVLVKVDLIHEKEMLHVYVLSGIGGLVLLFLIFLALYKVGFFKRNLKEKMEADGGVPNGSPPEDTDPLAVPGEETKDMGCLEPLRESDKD

T-cell = test: inhibitors of CD8+ T cell–vesicle binding, dose response, mouse 2C CD8+ T cells, flow cytometry (AID 485284); assay type: functional
[2] = target: T1, Short transient receptor potential channel 4 (Mus musculus, UniProt Q9QUQ5); test: TRPC4 positive allosteric modulators, dose response, cell-based, HEK293 TRPC4/mu-opioid, Fluo-4 calcium, EC20 DAMGO (AID 434941); assay type: functional
T1 sequence (Q9QUQ5 whole entry): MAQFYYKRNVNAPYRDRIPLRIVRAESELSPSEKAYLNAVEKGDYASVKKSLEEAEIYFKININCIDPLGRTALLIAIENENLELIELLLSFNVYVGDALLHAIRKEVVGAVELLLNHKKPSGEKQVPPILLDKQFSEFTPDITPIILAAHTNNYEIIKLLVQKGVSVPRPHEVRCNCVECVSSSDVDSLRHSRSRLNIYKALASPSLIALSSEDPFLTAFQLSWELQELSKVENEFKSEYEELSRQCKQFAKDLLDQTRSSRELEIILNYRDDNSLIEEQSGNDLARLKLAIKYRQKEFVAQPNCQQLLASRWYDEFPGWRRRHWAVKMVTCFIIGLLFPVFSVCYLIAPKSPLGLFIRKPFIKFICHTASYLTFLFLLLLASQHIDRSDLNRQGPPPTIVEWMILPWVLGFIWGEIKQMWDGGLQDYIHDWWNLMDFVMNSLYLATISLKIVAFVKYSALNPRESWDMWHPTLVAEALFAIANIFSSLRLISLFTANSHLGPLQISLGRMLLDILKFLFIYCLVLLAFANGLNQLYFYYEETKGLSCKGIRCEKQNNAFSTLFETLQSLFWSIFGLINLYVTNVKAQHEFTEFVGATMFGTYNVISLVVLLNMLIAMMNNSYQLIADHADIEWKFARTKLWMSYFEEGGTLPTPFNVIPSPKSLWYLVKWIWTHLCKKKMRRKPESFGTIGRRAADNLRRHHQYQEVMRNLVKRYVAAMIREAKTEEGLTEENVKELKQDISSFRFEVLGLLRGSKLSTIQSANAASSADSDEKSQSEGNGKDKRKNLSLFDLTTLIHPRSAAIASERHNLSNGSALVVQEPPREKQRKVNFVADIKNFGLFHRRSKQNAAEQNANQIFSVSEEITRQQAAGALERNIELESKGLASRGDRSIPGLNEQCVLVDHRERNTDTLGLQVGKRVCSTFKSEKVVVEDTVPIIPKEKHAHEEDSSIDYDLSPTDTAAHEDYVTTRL

[3] = Luminescence Cell-Based Dose Response HTS to Identify Activators of Luciferase Translation or Activity in H4 […] Cells. [Related pubchem assays: 1829 (Project Summary), 1814 (Primary HTS)]; assay type: functional
[4] = target: NACHT, LRR and PYD domains-containing protein 3 (Homo sapiens, UniProt Q96P20); test: NALP3 inhibitors in yeast, dose response, luminescent (AID 488799); assay type: functional
Chain of NACHT, LRR and PYD domains-containing protein 3 (Q96P20 whole entry, the tested form may be a part): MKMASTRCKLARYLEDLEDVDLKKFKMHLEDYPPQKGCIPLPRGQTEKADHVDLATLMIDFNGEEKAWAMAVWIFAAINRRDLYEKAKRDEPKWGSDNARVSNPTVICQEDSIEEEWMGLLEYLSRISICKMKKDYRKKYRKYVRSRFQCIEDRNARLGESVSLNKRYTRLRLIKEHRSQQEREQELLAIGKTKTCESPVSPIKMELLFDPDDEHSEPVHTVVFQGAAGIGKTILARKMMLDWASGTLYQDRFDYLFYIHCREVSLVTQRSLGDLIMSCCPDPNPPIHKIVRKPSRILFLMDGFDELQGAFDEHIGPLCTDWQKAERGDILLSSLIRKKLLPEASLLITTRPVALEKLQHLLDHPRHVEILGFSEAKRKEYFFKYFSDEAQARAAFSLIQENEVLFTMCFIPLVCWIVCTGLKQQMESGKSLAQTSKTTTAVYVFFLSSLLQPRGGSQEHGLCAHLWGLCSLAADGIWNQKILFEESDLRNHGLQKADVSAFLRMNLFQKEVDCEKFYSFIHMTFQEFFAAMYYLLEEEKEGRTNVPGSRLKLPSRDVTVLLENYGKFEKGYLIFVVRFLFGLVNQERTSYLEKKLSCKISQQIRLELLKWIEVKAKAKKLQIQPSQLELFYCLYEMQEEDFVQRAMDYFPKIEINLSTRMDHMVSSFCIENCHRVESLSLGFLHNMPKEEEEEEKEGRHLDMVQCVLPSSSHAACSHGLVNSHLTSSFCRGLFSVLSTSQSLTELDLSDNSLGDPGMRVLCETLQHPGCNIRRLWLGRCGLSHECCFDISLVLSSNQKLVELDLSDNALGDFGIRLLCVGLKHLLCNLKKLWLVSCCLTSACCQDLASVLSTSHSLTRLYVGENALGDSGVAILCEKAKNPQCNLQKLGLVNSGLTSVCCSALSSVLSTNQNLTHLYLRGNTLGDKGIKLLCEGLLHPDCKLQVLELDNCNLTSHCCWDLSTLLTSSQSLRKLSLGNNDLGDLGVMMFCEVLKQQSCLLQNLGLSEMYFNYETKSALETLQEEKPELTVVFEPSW

H4 = test: Luminescence Cell-Based Dose Response HTS to Identify Activators of 5'UTR Stem-Loop Driven Prion Protein mRNA Translation in H4 Neuroglioblastoma Cells. [Related pubchem assays: 1829 (Project Summary), 1814 (Primary HTS)]; assay type: functional; conditions: Homo sapiens
[5] = Luminescence Cell-Based Dose Response HTS to Identify Inhibitors of 5'UTR Stem-Loop Driven Prion Protein mRNA Translation in H4 Neuroglioblastoma Cells. [Related pubchem assays: 1827 (Project Summary), 1813 (Primary HTS)]; assay type: functional
[6] = inhibitors of SNCA 5'UTR-driven reporter translation, confirmation, H4 neuroglioma cells, luminescence (AID 1988); assay type: functional, cell-based
X-box-binding protein 1 = X-box-binding protein 1 (Homo sapiens, UniProt P17861); assay type: functional, Cricetulus griseus;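 further: confirmatory dose-response counter-screen serving a CHOP assay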
Chain of X-box-binding protein 1 (P17861 whole entry): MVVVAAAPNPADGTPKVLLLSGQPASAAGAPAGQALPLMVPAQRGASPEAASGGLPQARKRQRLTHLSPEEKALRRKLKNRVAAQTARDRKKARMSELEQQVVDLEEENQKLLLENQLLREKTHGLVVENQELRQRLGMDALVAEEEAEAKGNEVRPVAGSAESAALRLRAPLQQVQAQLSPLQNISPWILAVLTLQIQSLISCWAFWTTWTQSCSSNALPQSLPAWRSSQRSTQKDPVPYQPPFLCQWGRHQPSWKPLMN

[7] = target: DNA damage-inducible transcript 3 protein (Mus musculus, UniProt P35639); assay type: functional, Cricetulus griseus
Chain of DNA damage-inducible transcript 3 protein (P35639 whole entry): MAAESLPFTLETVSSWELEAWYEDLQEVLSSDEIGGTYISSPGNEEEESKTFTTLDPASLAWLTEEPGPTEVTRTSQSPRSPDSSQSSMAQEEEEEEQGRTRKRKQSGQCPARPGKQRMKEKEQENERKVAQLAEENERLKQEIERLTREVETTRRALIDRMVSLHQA

[8] = inhibitors of firefly luciferase expression or activity, dose response, H4 neuroglioma cells, luminescence (AID 1990); assay type: functional, cell-based
cells = assay type: functional, cell-based
J774.A1 = test: Confirmation of image-based Screening Assay for Inhibitors of Phagocytosis. [Related pubchem assays (depositor defined):AID1029, AID1643]; assay type: functional, cell-based; conditions: Mus musculus
[9] = inhibitors of SNCA 5'UTR-driven translation, confirmation, luminescence, H4 neuroglioblastoma cells, dose confirmation (AID 2454); assay type: functional, cell-based;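 further: H4 neuroglioblastoma cells carrying an alpha-synuclein 5'UTR luciferase reporter; potency for inhibition of the luciferase signal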
BJ [10] = test: cytotoxicity toward BJ-TERT fibroblasts, dose response, cell-based, RAS-independent, luminescence (AID 1933); assay type: functional; conditions: Homo sapiens
BJ [11] = test: cytotoxicity toward BJ-TERT-LT-ST fibroblasts, dose response, cell-based, RAS-independent, luminescence (AID 1935); assay type: functional; conditions: Homo sapiens;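 further: BJ fibroblasts immortalized with TERT plus LT and ST oncogenes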
BJ [12] = test: cells; assay type: functional, cell-based; conditions: Homo sapiens
Prothrombin = Prothrombin (Homo sapiens, UniProt P00734); test: Thrombin 1536 HTS Dose Response Confirmation. [Related pubchem assays: 1046 (Thrombin 1536 HTS; hits were confirmed in this assay)]; assay type: functional
[13] = cytotoxicity toward DRD oncogenic fibroblasts, dose response, cell-based, non-viral oncogenic, luminescence (AID 1934); assay type: functional; conditions: Homo sapiens
[14] = luciferase reporter signal reduction – luminescence, H4-C neuroglioblastoma cells, dose response (AID 2458); assay type: functional, cell-based;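 further: H4 neuroglioblastoma cells stably carrying a luciferase reporter gene fusion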

Chain of Mitogen-activated protein kinase 10 (P53779 whole entry): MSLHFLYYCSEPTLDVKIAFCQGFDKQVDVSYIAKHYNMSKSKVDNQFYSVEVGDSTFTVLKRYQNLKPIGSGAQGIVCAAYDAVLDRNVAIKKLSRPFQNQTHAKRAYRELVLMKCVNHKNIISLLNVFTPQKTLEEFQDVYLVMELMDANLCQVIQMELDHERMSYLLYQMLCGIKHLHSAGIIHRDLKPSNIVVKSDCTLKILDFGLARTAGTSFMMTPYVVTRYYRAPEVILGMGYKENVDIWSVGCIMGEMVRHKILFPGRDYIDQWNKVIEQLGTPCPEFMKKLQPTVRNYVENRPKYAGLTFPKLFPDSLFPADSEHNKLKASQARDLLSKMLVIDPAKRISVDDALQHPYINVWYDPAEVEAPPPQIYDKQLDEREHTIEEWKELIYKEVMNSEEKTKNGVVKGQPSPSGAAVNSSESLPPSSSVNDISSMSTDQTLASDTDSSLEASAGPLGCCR

CCOc1ccc(-c2nc(N)ncc2-c2ccccc2)c(O)c1
IC50 [1]: 12.7 µM (not active)
EC50 (Integrin alpha-L): 0.173 µM (active)
EC50 (T-cell): 25.8 µM (inactive)

O=C(Nc1cccc(Cl)c1)c1cnn2cccnc12
EC50 [2]: 1.68 µM (active)
EC50 [3]: 3 µM (active)
IC50 [4]: 8.19 µM (active)
EC50 (H4): 19.1 µM (active)

CC(C)CCn1c(SCc2ccc(Cl)cc2)nc2c1c(=O)[nH]c(=O)n2C
EC50 [5]: 13.3 µM (active)
EC50 [6]: 11.6 µM (active)
Absolute IC50 (XBP1) (X-box-binding protein 1): 10 µM
Absolute IC50 (CHOP) [7]: < 10 µM
EC50 [8]: 14.3 µM (active)

O=C(c1ccco1)N1CCN(C(=O)N2c3ccccc3Sc3ccccc32)CC1
EC50 [5]: 0.136 µM (active)
EC50 [6]: < 0.1 µM (active)
EC50 (cells): 0.291 µM (active)
IC50 (J774.A1): < 0.05 µM (inactive)
EC50 [9]: 0.381 µM (active)
EC50 (BJ [10]): 8.08 µM (inconclusive)
EC50 (BJ [11]): 1.41 µM (inconclusive)
EC50 (BJ [12]): 13.2 µM (inconclusive)
IC50 (Prothrombin): > 50 µM (not active)
EC50 [13]: 6.59 µM (inconclusive)
EC50 [8]: < 0.1 µM (active)
EC50 [14]: 0.295 µM (active)
